For data set [1], the system named is Avena fatua (AVEFA). The data set is described as follows: Example B6: post application on weeds, AVEFA. The note with it: 312 h, after 13 days, 100 = total damage, 0 = no damage, read-out: AVEFA damage to plant. It counts as in vivo. The method, then: (§1) Lolium perenne (LOLPE), Alopecurus myosuroides (ALOMY), Echinochloa crus-galli (ECHCG) and Avena fatua (AVEFA). Activity Against Weeds Seeds of a variety of test species were sown in standard soil in pots. After cultivation for 8 days under controlled conditions in a glasshouse (at 24/16° C., day/night; 14 hours light; 65% humidity), the plants were sprayed with an aqueous spray solution derived from the formulation of the technical active ingredient in acetone/water (50:50) solution containing 0.5% Tween 20 (polyoxyethelyene sorbitan monolaurate, CAS RN 9005-64-5). The test plants were then grown in a glasshouse under controlled conditions in a glasshouse (at 24/16° C., day/night; 14 hours light; 65% humidity) and watered twice daily. After 13 days, the test was evaluated (100=total damage to plant; 0=no damage to plant).

For data set [2], the system named is Echinochloa crus-galli (ECHCG). The data set is described as follows: Example B7: pre application on weeds, ECHCG. It counts as in vivo. The conditions noted are these: 312 h, pre-emergence spray one day after sowing, evaluated after 13 days, read-out: Pre application on weeds, ECHCG (100=total damage to plant; 0=no damage to plant). The method, then: as §1, with “one day” for “8 days”

For data set [3], the system named is Alopecurus myosuroides (ALOMY). The data set is described as follows: Example B6: post application on weeds, ALOMY. It counts as in vivo. The conditions noted are these: 312 h, after 13 days, 100 = total damage, 0 = no damage, read-out: ALOMY damage to plant. The method, then: as §1
Data set [4] deals with Winter wheat (TRZAW). The data set can be described thus: Example B8: post application on wheat, with and without safener cloquintocet-mexyl. It counts as in vivo. The note with it: after 13 days, 100 = total damage, 0 = no damage. The method, then:
Application with Safener (Cloquintocet-Mexyl) Winter wheat seeds with a seed treatment of cloquintocet-mexyl applied at a rate of 0.5 g/kg seeds were sown in standard soil in pots. After cultivation for 8 days under controlled conditions in a glasshouse (at 24/16° C., day/night; 14 hours light; 65% humidity), the plants were sprayed with an aqueous spray solution derived from the formulation of the technical active ingredient in acetone/water (50:50) solution containing 0.5% Tween 20 (polyoxyethelyene sorbitan monolaurate, CAS RN 9005-64-5). The test plants were then grown in a glasshouse under controlled conditions in a glasshouse (at 24/16° C., day/night; 14 hours light; 65% humidity) and watered twice daily. After 13 days, the test was evaluated (100=total damage to plant; 0=no damage to plant).

The subject of data set [5] is Alopecurus myosuroides (ALOMY). The data set is described as follows: Example B7: pre application on weeds, ALOMY. It counts as in vivo. The note with it: 312 h, pre-emergence spray one day after sowing, evaluated after 13 days, read-out: Pre application on weeds, ALOMY (100=total damage to plant; 0=no damage to plant). As to the method: as §1, with “one day” for “8 days”

Data set [6] deals with Lolium perenne (LOLPE). The data set can be described thus: Example B6: post application on weeds, LOLPE. The note with it: 312 h, after 13 days, 100 = total damage, 0 = no damage, read-out: LOLPE damage to plant. It counts as in vivo. The method, then: as §1
The subject of data set [7] is Lolium perenne (LOLPE). The data set can be described thus: Example B7: pre application on weeds, LOLPE. It counts as in vivo. The note with it: 312 h, pre-emergence spray one day after sowing, evaluated after 13 days, read-out: Pre application on weeds, LOLPE (100=total damage to plant; 0=no damage to plant). The method, then:
as §1, with “one day” for “8 days”

Data set [8] deals with Avena fatua (AVEFA). The data set is described as follows: Example B7: pre application on weeds, AVEFA. The note with it: 312 h, pre-emergence spray one day after sowing, evaluated after 13 days, read-out: Pre application on weeds, AVEFA (100=total damage to plant; 0=no damage to plant). It counts as in vivo. As to the method: as §1, with “one day” for “8 days”
Data set [9] deals with Echinochloa crus-galli (ECHCG). The data set can be described thus: Example B6: post application on weeds, ECHCG. It counts as in vivo. The note with it: 312 h, after 13 days, 100 = total damage, 0 = no damage, read-out: ECHCG damage to plant. The method, then: as §1

As for `CCOC(=O)Oc1c(-c2c(Cl)cc(C)cc2OC)c(=O)n2n1CCN(OC)CC2` [Compound P1.20], the melting point was 138 to 139 °C.
Molecule `CCOC(=O)Oc1c(-c2cc(C)c(C)cc2C)c(=O)n2n1CCN(OC)CC2` [Compound P1.21] registered a melting point of 117 to 118 °C.
On to `CCc1cc(C)cc(CC)c1C1C(=O)N2CCN(OC)CCN2C1=O` [Compound P2.3, 8-(2,6-Diethyl-4-methyl-phenyl)-3-methoxy-tetrahydro-pyrazolo[1,2-a][1,2,5]triazepine-7,9-dione], for which the melting point is 240 °C (dec.). For the same molecule, in [1], the pest or weed control at 250 g/ha came out at 100%. In addition, the pest or weed control at 250 g/ha in [2] amounted to 100%. In addition, the pest or weed control at 250 g/ha in data set [3] turned out to be 100%. Besides, the “TRZAW damage to plant” value in [4] (62.5 g/ha + 0.5 g/kg seeds cloquintocet-mexyl) is reported as 0. Further, the “TRZAW damage to plant” value in [4] (62.5 g/ha, without safener) is 60. In addition, in data set [5], the pest or weed control at 250 g/ha stood at 100%. Also, the pest or weed control at 250 g/ha in data set [6] worked out at 100%. Also, in data set [7], the pest or weed control at 250 g/ha came out at 100%. Besides, the pest or weed control at 250 g/ha in data set [8] came out at 90%. Moreover, in data set [9], the pest or weed control at 250 g/ha came to 100%.
`CON1CCN2C(=O)C(c3cc(-c4ccc(Cl)cc4)ccc3C)C(=O)N2CC1` [Compound P2.7] yielded a melting point of 248 to 250 °C.
As for `COc1cc(C)cc(C)c1C1C(=O)N2CCN(OC)CCN2C1=O` [Compound P2.12], the pest or weed control at 250 g/ha was 80% in data set [1]; 60% in data set [2]; 80% in data set [3]; 80% in data set [5]; 80% in data set [6]; 70% in [7]. For the same molecule, the results for the pest or weed control at 250 g/ha in [8] and in data set [9] were 60% and 90%, respectively. For the same molecule, the “TRZAW damage to plant” value in data set [4] (250 g/ha + 0.5 g/kg seeds cloquintocet-mexyl) is on record as 30; in data set [4] (250 g/ha, without safener), 70.
Molecule `CON1CCN2C(=O)C(c3cc(C)c(C)cc3C)C(=O)N2CC1` [Compound P2.19] yielded a melting point of 171 to 173 °C.
Same read-out and setting: then `CON1CCN2C(=O)C(c3c(C)cc(-c4ccc(Cl)cc4)cc3C)C(=O)N2CC1` [Compound P2.20], with 258 to 260 °C; and `CON1CCN2C(=O)C(c3c(C)cc(-c4ccc(F)cc4)cc3C)C(=O)N2CC1` [Compound P2.21], with 292 to 294 °C.

By melting point is commonly meant the temperature, or range, at which the solid turns liquid.

Values taken from patent publication US9282743B2, “Chemical compounds” (Syngenta Participations AG, priority 2011, dated 2016).
